# Laboratory results from patent publication US20240115681A1 (priority 2022, published 2024).
# In the oligonucleotide strings, read from the 5' end, every base follows the letter of its sugar. An asterisk marks phosphorothioate; unmarked linkages are phosphodiester. Other units and linkages are bracketed, terminal groups are in braces. A string of capitals states the bases alone. d = 2'-deoxy (DNA)
# Assays:
# [1] = test system: NHRI-HN1 syngeneic orthotopic cancer animal model; parameters: species or system mice; conditions: mouse, in vivo
# Mouse splenocytes = experiment: Cytokine expression in splenocytes by RT-qPCR; type: cell-based; conditions: 4 h (FIG. 8)
# Mouse PBMCs = experiment: Cytokine expression in PBMCs by RT-qPCR; type: cell-based; conditions: CpG-2722 5 μg/ml, c-di-AM(PS)2 1 μg/ml, 4 h (FIG. 9)
# Mouse BMDCs [2] = experiment: Surface marker expression on BMDCs by flow cytometry; type: cell-based; conditions: CpG-2722 5 μg/ml, c-di-AM(PS)2 1 μg/ml, 24 h, CD11c+ cells (FIG. 6)
# splenocytes = experiment: Antigen-dependent T helper responses: cytokine ELISA of RBD-stimulated splenocytes from immunized mice; type: in vivo, mouse; conditions: splenocytes of intramuscularly immunized mice stimulated with RBD for 96 h (FIG. 5A-5C)
# Mouse BMDCs [3] = experiment: Cytokine expression in BMDCs by RT-qPCR; type: cell-based; conditions: 4 h (FIG. 7); for expression of cytokine genes (TNF-α, IL-1β, IL-6, IL-12A, IL-12B, IL-23A, IFN-β, IFN-γ): CpG-2722 5 μg/ml, c-di-AM(PS)2 1 μg/ml
# [4] = test system: influenza VLP (viral like particle); experiment: Antibody titers after intranasal influenza VLP/adjuvant vaccines in BALB/c mice; conditions: intranasal days 0, 15, 29, after the 3rd vaccination (day 42) (FIG. 15B)
# recombinant S protein = test system: recombinant S protein; parameters: species or system SARS-CoV-2; conditions: in vivo
# [5] = test system: mouse embryonic fibroblasts (MEFs); experiment: Cytokine expression in MEFs by RT-qPCR; type: cell-based; conditions: CpG-2722 5 μg/ml, c-di-AM(PS)2 1 μg/ml, 4 h (FIG. 10)
compound,measurement,setting,value
Nc1ncnc2c1ncn2[C@@H]1O[C@@H]2COP(=O)(O)O[C@@H]3[C@H](O)[C@@H](COP(=O)(O)O[C@H]2[C@H]1O)O[C@H]3n1cnc2c(N)ncnc21 [2′3′-c-di-AMP],tumor growth suppression,[1],some level of tumor growth suppression
CpG-2722 (DNA dG*dT*dT*dG*dT*dC*dG*dT*dT*dT*dT*dT*dT*dG*dT*dC*dG*dT*dT),"expression of TNF-α, IL-1β, IL-6, IL-12A, IL-12B, IL-23A, IFN-β, IFN-γ","Mouse splenocytes; CpG-2722 5 μg/ml, c-di-AM(PS)2 1 μg/ml",more potent than c-di-AM(PS)2
same,"mRNA expression of TNF-α, IL-1β, IL-6, IL-12A, IL-12B, IL-23A, IFN-β, IFN-γ",Mouse PBMCs,higher induction by CpG-2722 treatment alone than that induced by the c-di-AM(PS)2 treatment alone
same,tumor growth suppression,[1],some level of tumor growth suppression
same,surface expression of CCR7,Mouse BMDCs [2],none of these two agonists activated expression of the CCR7
same,surface expression of CD40,Mouse BMDCs [2],induced expression of CD40
same,"antigen-dependent Th responses (IFN-γ for Th1, IL-17A for Th17, IL-4, IL-5, IL-13 for Th2)",splenocytes,preferentially induced antigen-dependent Th1 and Th17 responses
same,expression of IL-1β,Mouse BMDCs [3],strongly induced
same,expression of IL-2,Mouse BMDCs [3],not induced by either of these two agonists alone
same,"expression of cytokine genes (TNF-α, IL-1β, IL-6, IL-12A, IL-12B, IL-23A, IFN-β, IFN-γ)",Mouse BMDCs [3],"induced the expressions of TNF-α, IL-1β, IL-6, IL-12A, IL-12B, IL-23A, IFN-β, and IFN-γ genes"
same,anti-VLP IgG titer,[4],does not further increase the IgG titer
same,anti-S protein IgG titer,recombinant S protein,became apparent
same,serum anti-S IgA production,recombinant S protein,did not elicit the production of serum anti-S IgA
same,"cytokine gene expression (TNF-α, IL-1β, IL-6, IL-12B, IL-23A, IFN-β)",[5],not observed
Nc1ncnc2c1ncn2[C@@H]1O[C@@H]2COP(O)(=S)O[C@@H]3C(O)[C@@H](COP(O)(=S)O[C@H]2[C@H]1O)O[C@H]3n1cnc2c(N)ncnc21 (some centres unmarked) [2′3′-c-di-AM(PS)2],"expression of IFN-β, IL-4, IL-5, and IL-13",Mouse splenocytes,"induced the expression of IFN-β, IL-4, IL-5, and IL-13 more potently"
same,expression of IL-12A and IL-12B,Mouse splenocytes,not induced
same,surface expression of CCR7,Mouse BMDCs [2],none of these two agonists activated expression of the CCR7
same,surface expression of CD80,Mouse BMDCs [2],induced the expression of CD80 and CD86
same,surface expression of CD86,Mouse BMDCs [2],induced the expression of CD80 and CD86
same,"antigen-dependent Th responses (IFN-γ for Th1, IL-17A for Th17, IL-4, IL-5, IL-13 for Th2)",splenocytes,induced an antigen-dependent Th2 response
same,expression of IFN-α,Mouse BMDCs [3],induced the expression of IFN-α
same,expression of IL-2,Mouse BMDCs [3],not induced by either of these two agonists alone
same,"expression of cytokine genes (TNF-α, IL-1β, IL-6, IL-12A, IL-12B, IL-23A, IFN-β, IFN-γ)",Mouse BMDCs [3],"induced the expressions of TNF-α, IL-1β, IL-6, IL-12A, IL-12B, IL-23A, IFN-β, and IFN-γ genes"
same,anti-S protein IgG titer,recombinant S protein,became apparent
same,serum anti-S IgA production,recombinant S protein,did not elicit the production of serum anti-S IgA
same,"cytokine gene expression (TNF-α, IL-1β, IL-6, IL-12B, IL-23A, IFN-β)",[5],"induced the gene expression of TNF-α, IL-1β, IL-6, IL-12B, IL-23A, and IFN-β"
